Each structure is given as a SMILES string.

This assay deals with human FXR (NR1H4) (Homo sapiens (Human), UniProt Q96RI1). Nature of the assay: Human FXR (NR1H4) Assay (Gal4 promoter driven luciferase reporter, CHO cells). Type of assay: cell-based. The conditions noted are these: CHO reporter cells expressing human NR1H4; for EC50: 22 hours incubation, potency ranges; for Efficacy (%): normalized to CDCA set as 100%. The source says: Human FXR (NR1H4) Assay Determination of a ligand mediated Gal4 promoter driven transactivation to quantify ligand binding mediated activation of FXR. FXR Reporter Assay kit purchased from Indigo Bioscience (Catalogue number: IB00601) to determine the potency and efficacy of compound developed by Enanta that can induce FXR activation. The principle application of this reporter assay system is to quantify functional activity of human FXR. The assay utilizes non-human mammalian cells, CHO (Chinese hamster ovary) cells engineered to express human NR1H4 protein (referred to as FXR). Reporter cells also incorporate the cDNA encoding beetle luciferase which catalyzes the substrates and yields photon emission. Luminescence intensity of the reaction is quantified using a plate-reading luminometer, Envision. Reporter Cells include the luciferase reporter gene functionally linked to an FXR responsive promoter. Thus, quantifying changes in luciferase expression in the treated reporter cells provides a sensitive surrogate measure of the changes in FXR activity. […] The assay is according to the manufacturer's instructions. In brief, the assay was performed in white, 96 well plates using final volume of 100 μl containing cells with different doses of compounds. Retrieve Reporter Cells from −80° C. storage. Perform a rapid thaw of the frozen cells by transferring a 10 ml volume of 37° C. cell recovery medium into the tube of frozen cells. Recap the tube of Reporter Cells and immediately place it in a 37° C. water bath for 5-10 minutes. Retrieve the tube of Reporter Cell Suspension from the water bath. Sanitize the outside surface of the tube with a 70% alcohol swab, and then transfer it into the cell culture hood. Dispense 90 μl of cell suspension into each well of the 96-well Assay Plate. Transfer the plate into 37° C. incubator, allowing the cells adherent to the bottom of the well. Dilute compounds in Dilution Plate (DP), and administrate to cells at Assay Plate (AP). DMSO content of the samples was kept at 0.2%. Cells were incubated for additional 22 hours before luciferase activities were measured. Thirty minutes before intending to quantify FXR activity, remove Detection Substrate and Detection Buffer from the refrigerator and place them in a low-light area so that they may equilibrate to room temperature. Remove the plate's lid and discard all media contents by ejecting it into an appropriate waste container. Gently tap the inverted plate onto a clean absorbent paper towel to remove residual droplets. Cells will remain tightly adhered to well bottoms. Add 100 μl of luciferase detection reagent to each well of the assay plate. Allow the assay plate to rest at room temperature for at least 5 minutes following the addition of LDR. Set the instrument (Envision) to perform a single 5 second “plate shake” prior to reading the first assay well. Read time may be 0.5 second (500 mSec) per well.
human FXR (NR1H4), sequence (Q96RI1 whole entry, the tested form may be a part): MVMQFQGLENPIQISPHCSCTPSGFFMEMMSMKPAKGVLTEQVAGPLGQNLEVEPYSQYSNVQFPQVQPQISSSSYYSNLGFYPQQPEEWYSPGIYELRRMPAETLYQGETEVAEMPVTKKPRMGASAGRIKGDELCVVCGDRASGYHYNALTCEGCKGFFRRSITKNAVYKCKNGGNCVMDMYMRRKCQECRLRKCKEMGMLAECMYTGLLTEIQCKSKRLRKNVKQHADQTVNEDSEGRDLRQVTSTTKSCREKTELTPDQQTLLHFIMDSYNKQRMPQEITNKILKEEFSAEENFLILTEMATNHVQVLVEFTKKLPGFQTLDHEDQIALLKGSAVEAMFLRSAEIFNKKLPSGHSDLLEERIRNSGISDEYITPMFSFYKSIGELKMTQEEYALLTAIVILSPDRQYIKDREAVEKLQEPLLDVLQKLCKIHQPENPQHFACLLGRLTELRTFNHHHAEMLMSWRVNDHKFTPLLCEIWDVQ
(Reporter assays use an easily measured gene product as a stand-in for the process of interest.)

Broadly, the EC50 is the concentration needed to bring the measured effect to its halfway point. A low value points to an effect from little substance. Regarding `CN(Cc1ccc(C(=O)NS(=O)(=O)c2ccc(C(C)(C)C)cc2)cc1)c1ccc(OCc2c(-c3c(Cl)cccc3Cl)noc2C2CC2)nc1C(F)(F)F` [Example 2], the EC50 lay within 1000 to 10000 nM and the “Efficacy (%)” value amounted to 108%. As to `CN(Cc1ccc(C(=O)NS(=O)(=O)C2CC2)cc1)c1ccc(OCc2c(-c3c(Cl)cccc3Cl)noc2C2CC2)nc1C(F)(F)F` [Example 1], the concentration for a half-maximal effect (EC50) was in the range of 100 to 1000 nM and the “Efficacy (%)” value came out at 145%. As to `CN(Cc1ccc(C(=O)NS(=O)(=O)N(C)C)cc1)c1ccc(OCc2c(-c3c(Cl)cccc3Cl)noc2C2CC2)nc1C(F)(F)F` [Example 3], the “Efficacy (%)” value is listed as 153%.

Values taken from patent US10138228B2, “Isoxazole derivatives as FXR agonists and methods of use therof” (Enanta Pharmaceuticals, Inc., priority 2016, dated 2018).
